Data set [1] can be described thus: Compound cytotoxicity, XTT-based colorimetric assay. It counts as cell-based. Particulars: human. The gist of the method: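 Uninfected MT2 cells were treated with compound under the same protocol as the antiviral assay. Viability was read on day 4 with an XTT colorimetric assay, from which CC50 values were derived.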
Data set [2] deals with recombinant NL4-3 virus (nef section replaced with Renilla luciferase gene) in MT-2 cells. The experiment in a line: HIV cell culture assay (antiviral activity, luciferase readout). Particulars: Renilla, NL43, MT-2 cells infected for 4-5 days with recombinant NL4-3 Renilla luciferase virus. It counts as cell-based. The gist of the method: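 293T transfection → virus harvest at 2-3 d → titer in MT-2 by luciferase. MT-2 + virus + serial cpd dilutions, 4-5 d. Live-cell luciferase read; EC50 by median effect fit.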

[3] abbreviates: uninfected MT2 cells, day 4, XTT, read-out: CC50.

From US12594276B2, “Inhibitors of human immunodeficiency virus replication” (ViiV Healthcare UK (No.5) Limited, priority 2024, dated 2026) come the findings set out here.

pEC50: −log10 of the molar value. Where two headings read alike, the source gives them in different places.

Consider `CC(C)[C@@H]1CN(CCn2nc(NS(C)(=O)=O)c3c(Cl)ccc(-n4c([C@H](Cc5cc(F)cc(F)c5)NC(=O)Cn5nc(C6CC6)c6c5C[C@@H]5C[C@H]65)nc5nc(C6CCC(F)(F)CC6)ccc5c4=O)c32)CCO1` (atropisomer, axis not shown; (P)) [Example 435, N-[(1S)-1-[(3P)-3-(4-chloro-3-methanesulfonamido-1-{2-[(2R)-2-(propan-2-yl)morpholin-4-yl]ethyl}-1H-indazol-7-yl)-7-(4,4-difluorocyclohexyl)-4-oxo-3H,4H-pyrido[2,3-d]pyrimidin-2-yl]-2-(3,5-difluorophenyl)ethyl]-2-[(2S,4S)-9-cyclopropyl-7,8-diazatricyclo[4.3.0.0^2,^4]nona-1(6),8-dien-7-yl]acetamide], for which, in data set [1] (setting [3]), the CC50 at 4 days is more than 20 nM. In addition, in data set [2], the negative logarithm of the EC50 (pEC50) is 11.05.
As for `CS(=O)(=O)Nc1nn(CCN2C[C@H](F)C[C@H](F)C2)c2c(-n3c([C@H](Cc4cc(F)cc(F)c4)NC(=O)Cn4nc(C5CC5)c5c4C[C@@H]4C[C@H]54)nc4nc(C5CCC(F)(F)CC5)cc(C(F)F)c4c3=O)ccc(Cl)c12` (atropisomer, axis not shown; (P)) [Example 287, N-[(1S)-1-[(3P)-3-(4-chloro-1-{2-[(3R,5S)-3,5-difluoropiperidin-1-yl]ethyl}-3-methanesulfonamido-1H-indazol-7-yl)-7-(4,4-difluorocyclohexyl)-5-(difluoromethyl)-4-oxo-3H,4H-pyrido[2,3-d]pyrimidin-2-yl]-2-(3,5-difluorophenyl)ethyl]-2-[(2S,4S)-9-cyclopropyl-7,8-diazatricyclo[4.3.0.0^2,^4]nona-1(6),8-dien-7-yl]acetamide], in data set [1] (setting [3]), the CC50 at 4 days was more than 50 nM. Moreover, the pEC50 in data set [2] was 11.00.
As to `CS(=O)(=O)Nc1nn(CCN2CC[C@@](F)(C(F)(F)F)C2)c2c(-n3c([C@H](Cc4cc(F)cc(F)c4)NC(=O)Cn4nc(C(F)F)c5c4C(F)(F)[C@@H]4C[C@H]54)nc4nc(C5CCC(F)(F)CC5)ccc4c3=O)ccc(Cl)c12` (atropisomer, axis not shown; (P)) [Example 42, N-[(1S)-1-[(3P)-3-(4-chloro-1-{2-[(3S)-3-fluoro-3-(trifluoromethyl)pyrrolidin-1-yl]ethyl}-3-methanesulfonamido-1H-indazol-7-yl)-7-(4,4-difluorocyclohexyl)-4-oxo-3H,4H-pyrido[2,3-d]pyrimidin-2-yl]-2-(3,5-difluorophenyl)ethyl]-2-[(2S,4R)-9-(difluoromethyl)-5,5-difluoro-7,8-diazatricyclo[4.3.0.0^2,^4]nona-1(6),8-dien-7-yl]acetamide], the cytotoxic concentration (CC50) at 4 days in data set [1] (setting [3]) is more than 50 nM. Moreover, in data set [2], the pEC50 is 10.68.
Take `COCCNc1cc(C2CCC(F)(F)CC2)nc2nc([C@H](Cc3cc(F)cc(F)c3)NC(=O)Cn3nc(C(F)F)c4c3C(F)(F)[C@@H]3C[C@H]43)n(-c3ccc(Cl)c4c(NS(C)(=O)=O)nn(CCN5C[C@H]6C[C@@H](C5)O6)c34)c(=O)c12` (atropisomer, axis not shown; (P)) [Example 419, N-[(1S)-1-[(3P)-3-(4-chloro-3-methanesulfonamido-1-{2-[(1R,5S)-6-oxa-3-azabicyclo[3.1.1]heptan-3-yl]ethyl}-1H-indazol-7-yl)-7-(4,4-difluorocyclohexyl)-5-[(2-methoxyethyl)amino]-4-oxo-3H,4H-pyrido[2,3-d]pyrimidin-2-yl]-2-(3,5-difluorophenyl)ethyl]-2-[(2S,4R)-9-(difluoromethyl)-5,5-difluoro-7,8-diazatricyclo[4.3.0.0^2,^4]nona-1(6),8-dien-7-yl]acetamide]: the CC50 at 4 days in data set [1] is more than 20 nM. In data set [2], the pEC50 was 10.96.
`COCCCn1nc(NS(C)(=O)=O)c2c(Cl)ccc(-n3c([C@H](Cc4cc(F)cc(F)c4)NC(=O)Cn4nc(C(F)F)c5c4C[C@@H]4C[C@H]54)nc4nc(C5CCC(F)(F)CC5)cc(C)c4c3=O)c21` (atropisomer, axis not shown; (P)) [Example 86, N-[(1S)-1-[(3P)-3-[4-chloro-3-methanesulfonamido-1-(3-methoxypropyl)-1H-indazol-7-yl]-7-(4,4-difluorocyclohexyl)-5-methyl-4-oxo-3H,4H-pyrido[2,3-d]pyrimidin-2-yl]-2-(3,5-difluorophenyl)ethyl]-2-[(2S,4S)-9-(difluoromethyl)-7,8-diazatricyclo[4.3.0.0^2,^4]nona-1(6),8-dien-7-yl]acetamide]: the CC50 at 4 days in data set [1] (setting [3]) is more than 50 nM. In addition, the pEC50 in data set [2] is 10.96.
`COCCCn1nc(NS(C)(=O)=O)c2c(Cl)ccc(-n3c([C@H](Cc4cc(F)cc(F)c4)NC(=O)Cn4nc(C(F)F)c5c4C(F)(F)[C@@H]4C[C@H]54)nc4nc(C5CCC(F)(F)CC5)cc(NCCN5CCN(C)CC5)c4c3=O)c21` (atropisomer, axis not shown; (P)) [Example 535, N-[(1S)-1-[(3P)-3-[4-chloro-3-methanesulfonamido-1-(3-methoxypropyl)-1H-indazol-7-yl]-7-(4,4-difluorocyclohexyl)-5-{[2-(4-methylpiperazin-1-yl)ethyl]amino}-4-oxo-3H,4H-pyrido[2,3-d]pyrimidin-2-yl]-2-(3,5-difluorophenyl)ethyl]-2-[(2S,4R)-9-(difluoromethyl)-5,5-difluoro-7,8-diazatricyclo[4.3.0.0^2,^4]nona-1(6),8-dien-7-yl]acetamide]: the CC50 at 4 days in data set [1] (setting [3]) is more than 20 nM. Further, the negative logarithm of the EC50 (pEC50) in data set [2] was 10.24.
For `Cc1cc(C2CCC(F)(F)CC2)nc2nc([C@H](Cc3cc(F)cc(F)c3)NC(=O)Cn3nc(C(F)F)c4c3C(F)(F)[C@@H]3C[C@H]43)n(-c3ccc(Cl)c4c(NS(C)(=O)=O)nn(CCN5CC(C(F)F)C5)c34)c(=O)c12` (atropisomer, axis not shown; (P)) [Example 268, N-[(1S)-1-[(3P)-3-(4-chloro-1-{2-[3-(difluoromethyl)azetidin-1-yl]ethyl}-3-methanesulfonamido-1H-indazol-7-yl)-7-(4,4-difluorocyclohexyl)-5-methyl-4-oxo-3H,4H-pyrido[2,3-d]pyrimidin-2-yl]-2-(3,5-difluorophenyl)ethyl]-2-[(2S,4R)-9-(difluoromethyl)-5,5-difluoro-7,8-diazatricyclo[4.3.0.0^2,^4]nona-1(6),8-dien-7-yl]acetamide], in data set [1] (setting [3]), the cytotoxic concentration (CC50) at 4 days is more than 50 nM. Moreover, the pEC50 in data set [2] was 10.82.
As to `CS(=O)(=O)Nc1nn(CCN2CC[C@@H](F)C2)c2c(-n3c([C@H](Cc4cc(F)cc(F)c4)NC(=O)Cn4nc(C(F)F)c5c4C(F)(F)[C@@H]4C[C@H]54)nc4nc(C5CCC(F)(F)CC5)ccc4c3=O)ccc(Cl)c12` (atropisomer, axis not shown; (P)) [Example 208, N-[(1S)-1-[(3P)-3-(4-chloro-1-{2-[(3R)-3-fluoropyrrolidin-1-yl]ethyl}-3-methanesulfonamido-1H-indazol-7-yl)-7-(4,4-difluorocyclohexyl)-4-oxo-3H,4H-pyrido[2,3-d]pyrimidin-2-yl]-2-(3,5-difluorophenyl)ethyl]-2-[(2S,4R)-9-(difluoromethyl)-5,5-difluoro-7,8-diazatricyclo[4.3.0.0^2,^4]nona-1(6),8-dien-7-yl]acetamide], the CC50 at 4 days in data set [1] (setting [3]) is more than 50 nM. Moreover, in data set [2], the negative logarithm of the EC50 (pEC50) was 11.05.
The like results for `Cc1cc(C2CCC(F)(F)CC2)nc2nc([C@H](Cc3cc(F)cc(F)c3)NC(=O)Cn3nc(C4CC4)c4c3C[C@@H]3C[C@H]43)n(-c3ccc(Cl)c4c(NS(C)(=O)=O)nn(CCN5C[C@H]6CC[C@@H](C5)O6)c34)c(=O)c12` (atropisomer, axis not shown; (P)) [Example 4, N-[(1S)-1-[(3P)-3-(4-chloro-3-methanesulfonamido-1-{2-[(1R,5S)-8-oxa-3-azabicyclo[3.2.1]octan-3-yl]ethyl}-1H-indazol-7-yl)-7-(4,4-difluorocyclohexyl)-5-methyl-4-oxo-3H,4H-pyrido[2,3-d]pyrimidin-2-yl]-2-(3,5-difluorophenyl)ethyl]-2-[(2S,4S)-9-cyclopropyl-7,8-diazatricyclo[4.3.0.0^2,^4]nona-1(6),8-dien-7-yl]acetamide] were, in that order, more than 50 nM and 11.15.
The like results for `CC(C)[C@H]1CN(CCn2nc(NS(C)(=O)=O)c3c(Cl)ccc(-n4c([C@H](Cc5cc(F)cc(F)c5)NC(=O)Cn5nc(C6CC6)c6c5C[C@@H]5C[C@H]65)nc5nc(C6CCC(F)(F)CC6)cc(C(F)F)c5c4=O)c32)CCO1` (atropisomer, axis not shown; (P)) [Example 467, N-[(1S)-1-[(3P)-3-(4-chloro-3-methanesulfonamido-1-{2-[(2S)-2-(propan-2-yl)morpholin-4-yl]ethyl}-1H-indazol-7-yl)-7-(4,4-difluorocyclohexyl)-5-(difluoromethyl)-4-oxo-3H,4H-pyrido[2,3-d]pyrimidin-2-yl]-2-(3,5-difluorophenyl)ethyl]-2-[(2S,4S)-9-cyclopropyl-7,8-diazatricyclo[4.3.0.0^2,^4]nona-1(6),8-dien-7-yl]acetamide] were, in that order, more than 20 nM and 10.77.
`COCCCn1nc(NS(C)(=O)=O)c2c(Cl)ccc(-n3c([C@H](Cc4cc(F)cc(F)c4)NC(=O)Cn4nc(C(F)F)c5c4C(F)(F)[C@@H]4C[C@H]54)nc4nc(C5CCC(F)(F)CC5)cc(NCC(C)(C)N5CCCCC5)c4c3=O)c21` (atropisomer, axis not shown; (P)) [Example 539, N-[(1S)-1-[(3P)-3-[4-chloro-3-methanesulfonamido-1-(3-methoxypropyl)-1H-indazol-7-yl]-7-(4,4-difluorocyclohexyl)-5-{[2-methyl-2-(piperidin-1-yl)propyl]amino}-4-oxo-3H,4H-pyrido[2,3-d]pyrimidin-2-yl]-2-(3,5-difluorophenyl)ethyl]-2-[(2S,4R)-9-(difluoromethyl)-5,5-difluoro-7,8-diazatricyclo[4.3.0.0^2,^4]nona-1(6),8-dien-7-yl]acetamide]: the CC50 at 4 days in data set [1] (setting [3]) was more than 20 nM. Besides, in data set [2], the pEC50 is 11.22.
